Patent publication US11433043B2, “Compounds useful for increasing neurogenesis in neural tissue” (ALFASIGMA S.P.A., priority 2010, dated 2022)

How the values were obtained:
Format in all cases: cell-based
[1] = system: adult neural progenitors taken from the mouse hippocampus; test: Differentiation of stem cells/adult neural progenitors from hippocampal neurospheres (MAP-2/nestin immunofluorescence); details: for NPC neuronal differentiation: compared to ALC 1 mM
Protocol: The adult stem cells from the mouse hippocampus were prepared and maintained in culture in the form of neurospheres as described previously in Denis-Donini S. et al. J. Neuroscience, 2008. In particular, male CD1 mice aged 3-5 months were used, in accordance with the animal experimentation laws.
For differentiation, the cells derived from the hippocampal neurospheres with passages of between 4-12 were dissociated and plated on Lab-Tek 8-well permanox chamber slides (Nunc, Wiesbaden, Germany) previously coated with mouse laminin (2.5 μg/cm^2 Sigma) at a density of about 40,000 cells/cm^2. The composition of the differentiation medium was: Neurobasal-A, supplement B27, glutamine 2 mM, 100 U/100 μg/ml penicillin/streptomycin. ALC (0.1-2 mM) or a vehicle was added to the medium. After 24 hours the cells were washed and fixed in 4% paraformaldehyde for 20 min for subsequent analysis using immunofluorescence.
The cells fixed after differentiation in the presence of ALC, a vehicle or reference drugs were washed three times in PBS and permeabilized by incubation for 5 min, at room temperature with PBS supplemented with 0.48% (vol/vol) Triton X-100 (Sigma). Subsequently the cells were incubated with the following primary antibodies: anti-nestin mouse monoclonal antibody, 1:1200, Abcam, Cambridge, Mass.); anti-MAP-2 (rabbit polyclonal antibody, 1:600, Chemicon). The cells were incubated in the primary antibody for 150 min at room temperature in a solution containing 8% (vol/vol) of goat serum. The secondary antibodies used were: Alexa Fluor 594-conjugated donkey anti mouse antibody (1:1400, Molecular Probes), Alexa Fluor 488-conjugated donkey anti-rabbit (1:1 600, Molecular Probes), in a solution containing 16% (vol/vol) of donkey serum. The nuclei were then counterstained with Draq5 (1:2000, Alexis Biochemicals) prepared in PBS. The slides were assembled using Fluorescent Mounting Medium (DakoCytomation, Glostrup).
In each experiment, the cells of at least 5 fields/well (corresponding to about 150 cells), were quantified if positive to one or more phenotypical markers used to distinguish between them: undifferentiated stem progenitor cells, immature neurons, mature neurons. The cells were counted by an operator (blind to the nature of the treatment undergone by the cells) using an ECLIPSE E600 fluorescence microscope (NIKON, Calenzano, Italy) with a 60× lens. All experiments were conducted on at least five cell preparations, with each experimental point in triplicate.

[2] = system: adult neural progenitors taken from the mouse hippocampus; test: Cell survival: LDH enzyme activity in culture medium (necrosis)
Protocol: (§1) After differentiation in the presence of ALC, a vehicle or reference drugs, the medium was collected and the activity of the LDH enzyme was determined using the Cytotoxicity Detection Kit LDH (Roche Applied Science), following the manufacturer's instructions, to quantify death due to necrosis. In parallel, to assess also apoptotic death, after fixation, the cell nuclei were marked with 0.8 ng/ml Hoechst (Sigma-Aldrich) diluted in PBS. The apoptic nuclei were counted by an operator (blind to the nature of the treatment undergone by the cells) using an ECLIPSE E600 fluorescence microscope (NIKON, Calenzano, Italy) with a 60× lens. All experiments were conducted on at least five cell preparations, with each experimental point in triplicate.

[3] = system: adult neural progenitors taken from the mouse hippocampus; test: Cell survival: apoptotic nuclei (Hoechst staining) after differentiation
Protocol: as §1

[4] = Example 1, ALC 0.1-2 mM, 24 hours, FIG. 5
[5] = Example 2, 0.3-1 mM, lesser extent compared to ALC 1 mM, FIG. 6
[6] = at the concentrations that induced neurogenesis

Row | Compound | percentage of MAP-2 positive cells in culture ([1]; Example 1, ALC 0.1-2 mM, 24 hours differentiation, concentration-dependent, FIG. 1) | number of immature neurons (MAP2 positive, nestin positive) [1, 4] | number of progenitor cells (MAP2 negative, nestin negative) [1, 4] | number of stem/progenitor cells (MAP2 negative, nestin positive) [1, 4] | number of mature neurons (MAP2 positive, nestin negative) ([1]; Example 1, ALC 0.1-2 mM, 24 hours, concentration-dependent, FIG. 5) | activity of the LDH enzyme, an index of necrosis, in the culture medium ([2]; ALC 100 μM, 300 μM or 1 mM, FIG. 4) | percentage of apoptotic nuclei ([3]; ALC 100 μM, 300 μM or 1 mM, FIG. 3) | NPC neuronal differentiation ([1]; Example 2, 0.3-1 mM, FIG. 6) | number of a subpopulation of undifferentiated stem/neural progenitors [1, 5] | number of immature neurons [1, 5] | number of mature neurons [1, 5] | activity of the LDH enzyme, an index of necrosis [2, 6] | percentage of apoptotic nuclei [3, 6]
1 | CC(=O)O[C@H](CC(=O)[O-])C[N+](C)(C)C [ALC, acetyl L-carnitine] | increase | increased | decreased | no effect | increased | did not reduce | did not reduce | – | – | – | – | – | –
2 | C[N+](C)(C)C[C@H](O)CC(=O)[O-] [LC, L-carnitine] | – | – | – | – | – | – | – | no effect | – | – | – | – | –
3 | CCC(=O)O[C@H](CC(=O)[O-])C[N+](C)(C)C [PLC, propionyl L-carnitine] | – | – | – | – | – | – | – | less potent activator | reduced | increased | increased | did not reduce | did not reduce
